Source: US12595478B2, “Crispr-Cas systems having destabilization domain” (THE BROAD INSTITUTE, INC., priority 2016, dated 2026)

Key:
Drosophila = assay: TMP-controlled gene drive in Drosophila for green body color; type: in vivo; settings: in the presence of TMP, wt Cas9 for comparison, DMSO control ~50% (Mendelian inheritance)
[1] = system: human embryonic stem cells (hESCs); assay: Mutagenic NHEJ by double nickase in human embryonic stem cells; type: cell-based; settings: Cas9-D10A and two gRNAs targeted to different strands at the same location, data not shown
Description: In some embodiments, a vector comprises a regulatory element operably linked to an enzyme-coding sequence encoding a CRISPR protein (i.e. CRISPR/Cas system effector or CRISPR effector). […] The CRISPR enzyme is Cas9, and may be Cas9 from S. pyogenes or S. pneumoniae. In some embodiments, the CRISPR enzyme directs cleavage of one or both strands at the location of a target sequence, such as within the target sequence and/or within the complement of the target sequence. In some embodiments, the CRISPR enzyme directs cleavage of one or both strands within about 1, 2, 3, 4, 5, 6, 7, 8, 9, 10, 15, 20, 25, 50, 100, 200, 500, or more base pairs from the first or last nucleotide of a target sequence. In some embodiments, a vector encodes a CRISPR enzyme that is mutated to with respect to a corresponding wild-type enzyme such that the mutated CRISPR enzyme lacks the ability to cleave one or both strands of a target polynucleotide containing a target sequence. […] In some embodiments, a Cas9 nickase may be used in combination with guide sequenc(es), e.g., two guide sequences, which target respectively sense and antisense strands of the DNA target. This combination allows both strands to be nicked and used to induce NHEJ.

DHFR = assay: Binding of photocaged TMP derivative to DHFR; settings: before exposure to light (NVOC group attached)
ER50.SaCas9.ER50 = ER50.SaCas9.ER50 (Homo sapiens, UniProt P03372, G521R/L384M/M421G/N519S/T371A/Y537S); settings: cells expressing ER50.SaCas9.ER50 treated with 40HT
Description: Assessment of dose-responsiveness of DD-regulated SaCas9 gene editing activity.

ER50.Cas9.ER50 = assay: Cas9-mediated eGFP knockout (eGFP disruption) in U20S.eGFP-PEST cells nucleofected with ER50.Cas9.ER50; type: cell-based; settings: increasing concentrations 0.5-1000 nM, 48 h
Description: FIG. 3A-3B. […] (a) Representative images of conditional control of Cas9-mediated eGFP knockout in U20S.eGFP-PEST cells. […] Error bars represent standard deviation from biological replicates (n=6).

ER50.MS2.p65.HSF1 = ER50.MS2.p65.HSF1 (Homo sapiens, UniProt P03372, G521R/L384M/M421G/N519S/T371A/Y537S); settings: targeted to ASCL1; increasing concentrations of 40HT, 18 h, qPCR
Description: Multidimensional ‘chemical’ control of endogenous transcript levels. […] DHFR.PP7.VP64 was targeted to ILIRN, and ER50.MS2.p65.HSF1 was targeted to ASCL1. […] Error bars represent s.e.m. from biological replicates (n=3; a,c) or ±s.d. across technical replicates (n=4; b,d).

[2] = system: engineered Cas9 system comprising a functionalized guide with DHFR destabilization domain; assay: Induction of ASCL1 mRNA by engineered DD-Cas9 SAM with stabilizing ligand (FIG. 11); type: cell-based; settings: cells transiently transfected with DD-Cas9 SAM, treated with stabilizing ligand
Procedure: FIG. 11. […] Cells were transiently transfected with engineered DD-Cas9 SAM and ASCL1 mRNA was measured. Compared to untransfected cells, DD-Cas9-SAM induced expression of ASCL1 mRNA is observed.

[3] = target: engineered Cas9-SAM system comprising a DD (ER50) (Homo sapiens, UniProt P03372, G521R/L384M/M421G/N519S/T371A/Y537S); settings: ligand 4HT
[4] = system: temperature-sensitive mutant of mammalian DHFR (DHFRts); settings: cells expressing DHFRts; cited from earlier work
dystrophin = settings: average, across 48 weeks; cited from earlier work
human FKBP12 = settings: FKBP12 mutant DD; cited from earlier work

Sequence of ER50.MS2.p65.HSF1 (P03372 with tags, fused parts or gaps T371A/L384M/M421G/N519S/G521R/Y537S limits assumed): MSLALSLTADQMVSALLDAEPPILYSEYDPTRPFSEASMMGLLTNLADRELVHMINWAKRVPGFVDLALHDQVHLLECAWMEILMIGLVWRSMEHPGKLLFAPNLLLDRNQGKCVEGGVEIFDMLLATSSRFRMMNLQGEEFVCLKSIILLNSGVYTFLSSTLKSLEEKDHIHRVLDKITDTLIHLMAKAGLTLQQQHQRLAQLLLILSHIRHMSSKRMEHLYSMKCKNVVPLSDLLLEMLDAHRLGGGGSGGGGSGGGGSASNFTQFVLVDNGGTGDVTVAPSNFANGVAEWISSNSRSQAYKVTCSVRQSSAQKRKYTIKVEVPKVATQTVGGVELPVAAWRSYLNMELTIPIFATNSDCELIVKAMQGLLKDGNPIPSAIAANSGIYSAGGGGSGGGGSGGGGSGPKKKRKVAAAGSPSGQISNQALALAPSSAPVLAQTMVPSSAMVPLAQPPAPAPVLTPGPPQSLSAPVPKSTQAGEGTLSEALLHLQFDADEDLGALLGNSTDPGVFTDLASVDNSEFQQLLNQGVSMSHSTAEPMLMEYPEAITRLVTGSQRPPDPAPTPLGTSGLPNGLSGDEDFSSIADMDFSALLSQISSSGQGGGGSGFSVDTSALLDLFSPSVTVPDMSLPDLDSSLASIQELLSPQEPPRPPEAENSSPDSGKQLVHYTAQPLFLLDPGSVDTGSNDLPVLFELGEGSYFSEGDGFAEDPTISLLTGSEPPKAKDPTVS
Sequence of ER50.SaCas9.ER50 (P03372 305-549 T371A/L384M/M421G/N519S/G521R/Y537S limits assumed): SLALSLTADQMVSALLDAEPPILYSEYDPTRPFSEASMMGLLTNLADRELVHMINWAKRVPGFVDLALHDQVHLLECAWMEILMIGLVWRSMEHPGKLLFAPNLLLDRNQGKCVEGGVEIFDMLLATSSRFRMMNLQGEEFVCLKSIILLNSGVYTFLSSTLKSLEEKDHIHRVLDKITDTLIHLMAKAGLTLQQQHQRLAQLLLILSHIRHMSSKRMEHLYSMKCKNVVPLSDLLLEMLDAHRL
Sequence of engineered Cas9-SAM system comprising a DD (ER50) (P03372 305-549 T371A/L384M/M421G/N519S/G521R/Y537S limits assumed): as above

Question: For `COc1cc(Cc2cnc(N)nc2N)cc(OC)c1OC` [TMP, trimethoprim], which “SpCas9-mediated knockout of the ebony gene” value (DHFR-SpCas9-DHFR; TMP dose dependence) is on record?
Answer: The value was “Dose-dependent”.

Question: What about the “time post TMP removal from the fly food within which % ebony knockout is lowered” value (DHFR-SpCas9-DHFR; TMP removal from the fly food) of the same compound?
Answer: Its value is ≤ 24 h.

Question: And the “inheritance of the green-body color” value (Drosophila)?
Answer: Its value is 84%.

Question: Which “efficiency of inducing mutagenic NHEJ relative to nuclease (regular Cas9 without D10 mutation)” value [1] does the source give for “double nickase: Cas9-D10A and two gRNAs targeted to different strands at the same location” here?
Answer: The value was “about 50%”.

Question: Which “binding to DHFR” value (DHFR) does the source give for `COc1cc(COC(=O)Nc2ncc(Cc3cc(OC)c(OC)c(OC)c3)c(N)n2)c([N+](=O)[O-])cc1OC` [TMP-NVOC] here?
Answer: Its value is “prevents photocaged TMP-NVOC from binding to DHFR”.

Question: With 4-hydroxytamoxifen [40HT] as the compound, how does the “nuclease activity (indel activity, Surveyor assay)” value (ER50.SaCas9.ER50) read?
Answer: Its value is “dose dependent increase”.

Question: What about the “genome editing (dosability)” value (ER50.Cas9.ER50) of the same compound?
Answer: Its value is “High dosability”.

Question: What about the “endogenous gene upregulation (dose response)” value (ER50.MS2.p65.HSF1) of the same compound?
Answer: The value was “Highly dose-responsive”.

Question: What about the “ASCL1 mRNA” value [2] of the same compound?
Answer: The value was “significant increase”.

Question: What about the “SAM-dependent expression of ASCL1 mRNA” value [3] of the same compound?
Answer: The value was “Increased”.

Question: For `CN(Cc1cnc2nc(N)nc(N)c2n1)c1ccc(C(=O)N[C@@H](CCC(=O)O)C(=O)O)cc1` [methotrexate], which “degradation of DHFRts” value [4] is on record?
Answer: Its value is “inhibited degradation of the protein partially”.

Question: With eteplirsen as the compound, how does the “dystrophin positive fibers compared to baseline” value (dystrophin) read?
Answer: Its value is 47%.

Question: For `CC[C@H](C(=O)N1CCCC[C@H]1C(=O)O[C@H](CCc1ccc(OC)c(OC)c1)c1cccc(OCCN2CCOCC2)c1)c1cc(OC)c(OC)c(OC)c1` [Shield-1], which “binding to and stabilization of the DD” value (human FKBP12) is on record?
Answer: The value was “dose-dependent manner”.
